Drawing on patent publication US4110327A, “2,3 Diketo-piperazinocarbonylamino alkanoic acids and derivatives” (Toyama Chemical Co., Ltd., priority 1974, dated 1978), this text covers MIC for eleven compounds.

Holding throughout (type): cell-based
One experiment has as its system Escherichia coli NIHJ. Nature of the experiment: MIC against standard strain, plate method. The conditions noted are these: unit assumed. On the procedure: (§1) The minimum inhibitory concentrations (MIC) was determined by the plate method disclosed in "Chemotherapy" (Japan), Vol. 16, (1968), pages 98 - 99. The culture medium used was a Heart infusion agar (pH 7.4). The number of the cells per plate used in the inoculum as 10^4 (10^6 cells/ml).

The subject of experiment [1] is Klebsiella pneumoniae. Nature of the experiment: MIC against standard strain, plate method. The conditions noted are these: unit assumed. The protocol:
as §1

A further experiment has as its system Proteus vulgaris 3027. The experiment is described as follows: MIC against standard strain, plate method. The conditions noted are these: Proteus vulgaris 3027, standard strain; unit assumed. The protocol: as §1
Experiment [2] deals with Pseudomonas aeruginosa I.F.O. Nature of the experiment: MIC against standard strain, plate method. The conditions noted are these: unit assumed. The protocol: as §1
The subject of experiment [3] is Staphylococcus aureus 209p. Nature of the experiment: MIC against standard strain, plate method. To be noted: unit assumed. The protocol: as §1
The subject of another experiment is Staphylococcus aureus. Nature of the experiment: MIC against clinical isolates. To be noted: unit assumed.
The test system of a further experiment is Escherichia coli. Nature of the experiment: MIC against clinical isolates. To be noted: unit assumed.
A further experiment relates to Pseudomonas aeruginosa. The experiment is described as follows: MIC against clinical isolates. The conditions noted are these: unit assumed.
Experiment [4] has as its system Klebsiella pneumoniae. Nature of the experiment: MIC against clinical isolates. The conditions noted are these: unit assumed.

Each structure is given as a SMILES string. Values after ≈ are worked out from the molar mass of the structure shown.

Broadly, the MIC is the lowest concentration that inhibits growth of the organism. `CN1CCN(C(=O)NC(C(=O)NC2C(=O)N3C2SC(C)(C)C3C(=O)OCCN2CCOCC2)c2ccccc2)C(=O)C1=O` (single isomer, unassigned) [compound 55]: the MIC amounted to 0.4 µg/mL (≈ 0.649 µM) against Escherichia coli NIHJ; 25 µg/mL (≈ 40.5 µM) against Klebsiella pneumoniae [1]; 0.79 µg/mL (≈ 1.28 µM) against Proteus vulgaris 3027; 6.25 µg/mL (≈ 10.1 µM) in experiment [2]; 0.79 µg/mL (≈ 1.28 µM) in [3].
Regarding `CC1(C)S[C@@H]2[C@H](NC(=O)[C@H](NC(=O)N3CCN(Cc4ccccc4)C(=O)C3)c3ccccc3)C(=O)N2[C@H]1C(=O)O` [compound 23], the MIC in the experiment on Escherichia coli NIHJ is under 1.57 µg/mL; in the experiment on Klebsiella pneumoniae [1] it was 6.25 µg/mL (≈ 11 µM); in the experiment with Proteus vulgaris 3027 it was 3.13 µg/mL (≈ 5.53 µM); in experiment [2] it was 25 µg/mL (≈ 44.2 µM); in experiment [3] it was under 1.57 µg/mL.
Take `CC1(C)S[C@@H]2[C@H](NC(=O)[C@H](NC(=O)N3CCN(C(=O)C4CCCCC4)CC3=O)c3ccccc3)C(=O)N2[C@H]1C(=O)O` [compound 3]: the MIC in the experiment with Escherichia coli NIHJ is under 1.57 µg/mL; in the experiment on Klebsiella pneumoniae [1], 3.13 µg/mL (≈ 5.34 µM); against Proteus vulgaris 3027 it was 3.13 µg/mL (≈ 5.34 µM); in experiment [2], 100 µg/mL (≈ 171 µM); in experiment [3], under 1.57 µg/mL.
For the compound `CCCCCC(=O)N1CCN(C(=O)N[C@@H](C(=O)N[C@@H]2C(=O)N3[C@@H]2SC(C)(C)[C@@H]3C(=O)O)c2ccccc2)C(=O)C1` [compound 6], the minimum inhibitory concentration (MIC) with Escherichia coli NIHJ was 3.13 µg/mL (≈ 5.46 µM); against Klebsiella pneumoniae [1], 6.25 µg/mL (≈ 10.9 µM); in the experiment with Proteus vulgaris 3027, 6.25 µg/mL (≈ 10.9 µM); in experiment [2], 50 µg/mL (≈ 87.2 µM); in experiment [3] it was 3.13 µg/mL (≈ 5.46 µM).
For `CCCCN1CC(=O)N(C(=O)N[C@@H](C(=O)N[C@@H]2C(=O)N3[C@@H]2SC(C)(C)[C@@H]3C(=O)O)c2ccccc2)C(C)C1` (some centres unmarked) [compound 15], the MIC against Escherichia coli NIHJ was 3.13 µg/mL (≈ 5.74 µM); against Klebsiella pneumoniae [1] it was 6.25 µg/mL (≈ 11.5 µM); against Proteus vulgaris 3027, 6.25 µg/mL (≈ 11.5 µM); in experiment [2], 50 µg/mL (≈ 91.6 µM); in experiment [3] it was under 1.57 µg/mL.
In the case of `CC1(C)S[C@@H]2[C@H](NC(=O)[C@H](NC(=O)N3CC(=O)N(Cc4ccccc4)CC3=O)c3ccccc3)C(=O)N2[C@H]1C(=O)O` [compound 35], the MIC with Escherichia coli NIHJ was 6.25 µg/mL (≈ 10.8 µM); in the experiment with Klebsiella pneumoniae [1], 25 µg/mL (≈ 43.1 µM); in the experiment with Proteus vulgaris 3027, 25 µg/mL (≈ 43.1 µM); in experiment [2] it was 100 µg/mL (≈ 173 µM); in experiment [3] it was 1.57 µg/mL (≈ 2.71 µM).
`C=C(C)CN1CCN(C(=O)N[C@@H](C(=O)N[C@@H]2C(=O)N3[C@@H]2SC(C)(C)[C@@H]3C(=O)O)c2ccccc2)CC1=O` [compound 27]: the MIC was under 1.57 µg/mL against Escherichia coli NIHJ; 25 µg/mL (≈ 47.2 µM) against Klebsiella pneumoniae [1]; 3.13 µg/mL (≈ 5.91 µM) against Proteus vulgaris 3027; 25 µg/mL (≈ 47.2 µM) in [2]; under 1.57 µg/mL in [3].
With `Cc1ccc(C(=O)N2CCN(C(=O)N[C@@H](C(=O)N[C@@H]3C(=O)N4[C@@H]3SC(C)(C)[C@@H]4C(=O)O)c3ccccc3)C(=O)C2)cc1` [compound 9], the MIC is 3.13 µg/mL (≈ 5.27 µM) against Escherichia coli NIHJ; 3.13 µg/mL (≈ 5.27 µM) in the experiment with Klebsiella pneumoniae [1]; 3.13 µg/mL (≈ 5.27 µM) against Proteus vulgaris 3027; 100 µg/mL (≈ 168 µM) in experiment [2]; under 1.57 µg/mL in experiment [3].
In the case of `CC1(C)S[C@@H]2[C@H](NC(=O)[C@H](NC(=O)N3CCN(C(=O)c4ccc(Cl)cc4)CC3=O)c3ccccc3)C(=O)N2[C@H]1C(=O)O` [compound 8], the figures for the MIC (against Escherichia coli NIHJ; with Klebsiella pneumoniae [1]; in experiment [3]) were under 1.57 µg/mL, 6.25 µg/mL (≈ 10.2 µM) and under 1.57 µg/mL, respectively.
Turning to `O=C(Cc1cccs1)N[C@@H]1C(=O)N2C(C(=O)[O-])=C(C[n+]3ccccc3)CS[C@H]12` [Cephaloridine, reference compound], the MIC in the experiment on Escherichia coli NIHJ is over 3.13 µg/mL; with Klebsiella pneumoniae [1] it was 200 µg/mL (≈ 481 µM); in experiment [2] it was 200 µg/mL (≈ 481 µM); in [3], under 1.57 µg/mL.
On to `O=C(Cc1cccs1)N[C@@H]1C(=O)N2C(C(=O)[O-])=C(C[n+]3ccccc3)CS[C@H]12` [Cephalorizine, reference compound], for which the minimum inhibitory concentration (MIC) was under 0.4 µg/mL against Staphylococcus aureus (clinical isolate F-1); under 0.4 µg/mL in the experiment on Staphylococcus aureus (clinical isolate F-2); under 0.4 µg/mL against Staphylococcus aureus (clinical isolate F-3); under 0.4 µg/mL with Staphylococcus aureus (clinical isolate F-4); 0.78 µg/mL (≈ 1.88 µM) against Staphylococcus aureus (clinical isolate F-5); under 0.4 µg/mL against Staphylococcus aureus (clinical isolate MS 8588). In addition, the MIC with Staphylococcus aureus (clinical isolate MS 8596) was under 0.4 µg/mL; with Staphylococcus aureus (clinical isolate MS 8619), under 0.4 µg/mL; against Staphylococcus aureus (clinical isolate MS 8684) it was under 0.4 µg/mL; against Staphylococcus aureus (clinical isolate MS 8713), under 0.4 µg/mL; against Escherichia coli (clinical isolate GN 3435), 3.13 µg/mL (≈ 7.53 µM); in the experiment with Escherichia coli (clinical isolate GN 3452) it was 3.13 µg/mL (≈ 7.53 µM). In addition, the MIC was 50 µg/mL (≈ 120 µM) in the experiment with Escherichia coli (clinical isolate GN 3465); 3.13 µg/mL (≈ 7.53 µM) against Escherichia coli (clinical isolate GN 3481); 100 µg/mL (≈ 241 µM) in the experiment on Escherichia coli (clinical isolate GN 3611); 3.13 µg/mL (≈ 7.53 µM) in the experiment on Escherichia coli (clinical isolate K-1); 3.13 µg/mL (≈ 7.53 µM) against Escherichia coli (clinical isolate K-2); 200 µg/mL (≈ 481 µM) with Escherichia coli (clinical isolate K-3). Also, the MIC with Escherichia coli (clinical isolate K-4) is 6.25 µg/mL (≈ 15 µM); with Pseudomonas aeruginosa (clinical isolate GN 82), over 200 µg/mL; against Pseudomonas aeruginosa (clinical isolate GN 163), over 200 µg/mL; in the experiment with Pseudomonas aeruginosa (clinical isolate GN 221), over 200 µg/mL; in the experiment on Pseudomonas aeruginosa (clinical isolate GN 244), over 200 µg/mL; against Pseudomonas aeruginosa (clinical isolate GN 376) it was over 200 µg/mL. Moreover, the MIC against Pseudomonas aeruginosa (clinical isolate GN 383), against Pseudomonas aeruginosa (clinical isolate GN 1035), in the experiment with Pseudomonas aeruginosa (clinical isolate GN 1091), against Pseudomonas aeruginosa (clinical isolate GN 2565), in the experiment with Pseudomonas aeruginosa (clinical isolate GN 2987) and in the experiment with Pseudomonas aeruginosa (clinical isolate S-1) was over 200 µg/mL throughout. The MIC is over 200 µg/mL in the experiment with Pseudomonas aeruginosa (clinical isolate S-2); over 200 µg/mL against Pseudomonas aeruginosa (clinical isolate S-3); over 200 µg/mL in the experiment with Pseudomonas aeruginosa (clinical isolate S-4); 3.13 µg/mL (≈ 7.53 µM) in the experiment with Klebsiella pneumoniae [4] (clinical isolate GN 917); 12.5 µg/mL (≈ 30.1 µM) with Klebsiella pneumoniae [4] (clinical isolate GN 4081); 12.5 µg/mL (≈ 30.1 µM) against Klebsiella pneumoniae [4] (clinical isolate GN 4117).
